Results as given in patent publication US11241398B2, “Affinity medicant conjugate” (Califia Pharma Inc., priority 2014, dated 2022).
Where two headings read alike, the source gives them in different places. Marks after values point to notes of the source that are not given here. Residues, ends and D or L forms follow the SMILES beside them. *: point of attachment. X3 = CC1=C(C*)C2=C(C)C3(CC3)C(C)(O)C(=O)C2=C1

Tests used:
[1] = tested on: 8392B cell line; experiment: 48 hour exposure, growth or viability by Trypan Blue Exclusion assay, nontarget cell line; assay type: cell-based; conditions: for IC50: read-out: Mean IC50 value, 8392B Nontarget Cell Line, 48 hr exposure, 8392B nontarget cell line, 48 hr exposure, mean ± SD, N = 3 unless otherwise indicated
Description: (§1) The MV522 cell line is a lung-derived adenocarcinoma cell line. In various embodiments of the invention, the MV522 cell line represents a “target” cell line. […] The two hour toxicity data represents the concentration of a given analog for which a two hour exposure will inhibit 50% of the DNA synthesis activity in a given cell line. The 48 hour exposure data represents the concentration at which a given analog with a 48 hour exposure will inhibit the growth or viability in a given cell line as defined by the standard Trypan Blue Exclusion assay.

[2] = tested on: MV522 cell line; experiment: two hour toxicity: inhibition of 50% of DNA synthesis activity, target cell line; conditions: for IC50: read-out: Mean IC50 value, MV522 Target Cell Line, 2 hr exposure, MV522 target cell line, 2 hr exposure, mean ± SD, N = 3 unless otherwise indicated; for cytotoxicity (in words): see Table XV
Description: as §1

[3] = tested on: 8392B cell line; experiment: two hour toxicity: inhibition of 50% of DNA synthesis activity, nontarget cell line; assay type: cell-based; conditions: read-out: Mean IC50 value, 8392B Nontarget Cell Line, 2 hr exposure, mean ± SD, N = 3 unless otherwise indicated
Description: as §1

[4] = tested on: MV522 cell line; experiment: 48 hour exposure, growth or viability by Trypan Blue Exclusion assay, target cell line; assay type: cell-based; conditions: read-out: Mean IC50 value, MV522 Target Cell Line, 48 hr exposure, mean ± SD, N = 3 unless otherwise indicated
Description: as §1

[5] = tested on: HT29 (ER Negative); experiment: cytotoxic data IC50, 2 hour exposure, cells not expressing the estrogen receptor; assay type: cell-based; conditions: N = 3, mean ± SD
Excerpt: (§2) MCF7 over express estrogen alpha-receptors.
(§3) MCF7 cells over express estrogen alpha-receptors.

[6] = tested on: MCF7 (ER positive); experiment: cytotoxic data IC50, 2 hour exposure, cells expressing the estrogen receptor; assay type: cell-based; conditions: for preferential killing of MCF7 (ER positive) versus ER negative cells: Table VII
Excerpt: as §2, §3

[7] = tested on: Prostate LnCAP (positive PSA); experiment: activity of PSA cleavable analogs, 48 hour exposure, PSA positive cell line; assay type: cell-based; conditions: N = 3, mean ± SD
[8] = tested on: NCI-DTP 60 cell line panel; conditions: cited from earlier work
[9] = tested on: MDR phenotypes; experiment: multidrug resistance studies (mechanisms of drug resistance); assay type: cell-based; conditions: multi-medicant resistance phenotype, Bcl-2 over expression, p53 and p21/WAF1 mutations
[10] = tested on: hormone-refractory prostate cancer; conditions: cited from earlier work

## CC1=C(CO)C2=C(C)C3(CC3)[C@@](C)(O)C(=O)C2=C1 [Analog 002]
[1]; prolonged exposure period (e.g. 48 hours)
  inhibition of the nontarget cell line with prolonged exposure: can eventually inhibit the nontarget cell line

## CC1=C(COC2OC(CO)C(O)C(O)C2O)C2=C(C)C3(CC3)C(C)(O)C(=O)C2=C1 (centres unmarked) [Analog 018]
[2]
  IC50: 8.8 ± 2.9 µM

## CC1=C(CSCCC(N)C(=O)O)C2=C(C)C3(CC3)[C@@](C)(O)C(=O)C2=C1 (some centres unmarked) [Analog 097]
[3]
  IC50: > 82 µM

## CC1=C(CSC[C@@H](C)C(=O)N2CCCC2C(=O)O)C2=C(C)C3(CC3)[C@@](C)(O)C(=O)C2=C1 (some centres unmarked) [Analog 098]
[2]
  IC50: 18.8 ± 2.5 µM
[3]
  IC50: > 65 µM
[4]
  IC50: 4.6 ± 0.25 µM
[1]
  IC50: 11.7 ± 1.8 µM

## CC1=C2C(=O)C(C)(CO)C=C2C(=O)C(C)(O)C12CC2 (centres unmarked) [Analog 099]
[2]
  IC50: 8.4 ± 1.1 µM
[3]
  IC50: 4 ± 0.4 µM

## CC1=C(CSCC(N)C(=O)NC(CC(N)=O)C(=O)NCC(=O)NC(CCCNC(=N)N)C(=O)NC(CS)C(=O)O)C2=C(C)C3(CC3)C(C)(O)C(=O)C2=C1 (centres unmarked) [Analog 102] (H-C(X3)NGRC-OH; configuration not given here)
[2]
  IC50: > 13 µM

## CC(=O)OCC1=C(CO)C=C2C(=O)C(C)(OC(C)=O)C3(CC3)C(C)=C21 (centres unmarked) [Analog 103]
[2]
  IC50: 31.8 ± 4.9 µM
[3]
  IC50: 12.1 ± 2 µM
[4]
  IC50: 5.9 ± 0.4 µM

## CC1=C2C(=CC(C)(C)[C@@H]2OC(=O)CCCC(=O)Oc2ccc3c(c2)CC[C@@H]2[C@@H]3CC[C@]3(C)C(=O)CC[C@@H]23)C(=O)[C@](C)(O)C12CC2 [Analog 107]
[2]
  IC50: > 50 µM
[3]
  IC50: > 50 µM

## CC1=C(CCC(=O)Oc2ccc3c(c2)CCC2C3CCC3(C)C(O)CCC23)C2=C(C)C3(CC3)C(C)(O)C(=O)C2=C1 (centres unmarked) [Analog 108]
[5]
  IC50: > 55 µM
[6]; N = 3, mean ± SD
  IC50: 14.1 ± 2.8 µM
[2]
  IC50: 12.3 ± 2.3 µM
[3]
  IC50: > 55 µM
[4]
  IC50: 0.52 ± 0.05 µM

## CC1=C2C(=CC(C)(C)C2OC(=O)CCCC(=O)Oc2ccc3c(c2)CCC2C3CCC3(C)C(O)CCC23)C(=O)C(C)(O)C12CC2 (centres unmarked) [Analog 109]
[2]
  IC50: > 50 µM
[3]
  IC50: > 50 µM

## CC1=C(CCC(=O)Oc2ccc3c(c2)CC[C@@H]2[C@@H]3CC[C@]3(C)C(=O)CC[C@@H]23)C2=C(C)C3(CC3)[C@@](C)(O)C(=O)C2=C1 [Analog 110]
[5]
  IC50: > 19 µM
[6]
  preferential killing of MCF7 (ER positive) versus ER negative cells: preferentially killed
[2]
  IC50: > 55 µM
[3]
  IC50: > 55 µM
[1]
  IC50: 25.3 ± 2.1 µM

## CC1=C(CCC(=O)OC2CCC3(C)C(CCC4C5CCC(=O)C5(C)CCC43)C2)C2=C(C)C3(CC3)[C@@](C)(O)C(=O)C2=C1 (some centres unmarked) [Analog 112]
[3]
  IC50: 14.9 ± 0.1 µM
[1]
  IC50: 5.2 ± 0.3 µM

## CC1=C2C(=CC(C)(COC(=O)CCCC(=O)O)C2OC(=O)CCCC(=O)O)C(=O)C(C)(O)C12CC2 (centres unmarked) [Analog 117]
[1]
  IC50: 0.01 ± 0.002 µM

## CC1=C2C(=CC(C)(COC(=O)c3cc([N+](=O)[O-])cc([N+](=O)[O-])c3)C2OC(=O)CCCC(=O)O)C(=O)C(C)(O)C12CC2 (centres unmarked) [Analog 118]
[3]
  IC50: 24.5 ± 4.5 µM

## CC(=O)ON(C(C)=O)c1ccc(C(=O)OCC2(C)C=C3C(=O)C(C)(O)C4(CC4)C(C)=C3C2O)cc1 (centres unmarked) [Analog 136]
[3]
  IC50: > 6.2 µM

## CC(=O)ON(C(C)=O)c1ccc(C(=O)OCC2(C)C=C3C(=O)C(C)(O)C4(CC4)C(C)=C3C2OC(=O)c2ccc(N(OC(C)=O)C(C)=O)cc2)cc1 (centres unmarked) [Analog 140]
[4]
  IC50: > 14 µM
[1]
  IC50: > 14 µM

## COC(=O)C1=C(C(=O)OC)C23C=C(C)C1C2=C(C)C1(CC1)C(C)(O)C3O (centres unmarked) [Analog 141]
[3]
  IC50: 13.7 ± 1.9 µM
[4]
  IC50: 3.7 ± 0.8 µM

## COC(=O)C1=C(C(=O)OC)C23C=C(C)C1C2=C(C)C1(CC1)C(C)(O)C3=O (centres unmarked) [Analog 142]
[4]
  IC50: 0.024 ± 0.007 µM

## CON(CC1=C(C)C=C2C(=O)[C@](C)(O)C3(CC3)C(C)=C21)C(=O)C(N)Cc1c[nH]c2ccccc12 (some centres unmarked) [Analog 154]
[2]
  IC50: > 70 µM
[3]
  IC50: > 70 µM

## CC1=C(OC(=O)CCCCC(=O)c2ccccc2)C2=C(C)C3(CC3)[C@@](C)(O)C(=O)C2=C1 [Analog 158]
[2]
  IC50: > 175 µM
[3]
  IC50: > 200 µM

## CC1=C2C(=O)C(C)(OC(C)C)CC2C(O)C(=O)C12CC2 (centres unmarked) [Analog 183]
[2]
  IC50: > 120 µM
[3]
  IC50: > 120 µM
[1]
  IC50: > 235 µM

## CC1=CC2C(=C(C)C3(CC3)C(C)(O)C2O)C1=O (centres unmarked) [Analog 186]
[2]
  IC50: 144 ± 32 µM
[4]
  IC50: 70 ± 16 µM

## CC1=C(CN2C(=O)C=CC2=O)C2=C(C)C3(CC3)[C@@](C)(O)C(=O)C2=C1 [Analog 189]
[2]
  cytotoxicity (in words): cytotoxic with nM activity

## CC1=C(CCCN2C(=O)C=CC2=O)C2=C(C)C3(CC3)[C@@](C)(O)C(=O)C2=C1 [Analog 190]
[2]
  cytotoxicity (in words): cytotoxic with nM activity

## CC1=C2C(=CC(C)(CO[Si](C)(C)C(C)(C)C)C2N)C(=O)C(C)(O)C12CC2 (centres unmarked) [Analog 205]
[2]
  IC50: 8.4 ± 2.2 µM
[3]
  IC50: > 185 µM
[1]
  IC50: > 2.6 µM

## CC1=C2C(=C[C@@](C)(CO[Si](C)(C)C(C)(C)C)[C@@H]2OC(=O)[C@@H]2CCCN2C(=O)[C@H](CO)NC(=O)[C@@H](N)CO)C(=O)[C@](C)(O)C12CC2 [Analog 214]
[7]
  IC50: 0.19 ± 0.03 µM

## CC1=C(COC(=O)CCCCCN2C(=O)C=CC2=O)C2=C(C)C3(CC3)[C@@](C)(O)C(=O)C2=C1 [Analog 217]
[2]
  cytotoxicity (in words): cytotoxic with nM activity

## CC1=C2C(=CC(C)(C)[C@@H]2OC(=O)CCCCCN2C(=O)C=CC2=O)C(=O)[C@](C)(O)C12CC2 [Analog 218]
[2]
  cytotoxicity (in words): cytotoxic with nM activity
[4]
  IC50: 0.6 ± 0.2 µM
[1]
  IC50: 0.6 ± 0.1 µM

## CC1=C2C(=C[C@@](C)(CO[Si](C)(C)C(C)(C)C)[C@@H]2OC(=O)c2ccc(S(=O)(=O)F)cc2)C(=O)[C@](C)(O)C12CC2 [Analog 219]
[2]
  IC50: > 52 µM
[3]
  IC50: > 52 µM
[1]
  IC50: > 52 µM

## CC1=C2C(=CC(C)(C)[C@@H]2OC(=O)c2ccc(S(=O)(=O)F)cc2)C(=O)[C@](C)(O)C12CC2 [Analog 222]
[3]
  IC50: 9.3 µM

## CC1=CC2=C(C)C3(CC3)C(C)(O)C(=NO)C2=C1 (centres unmarked) [Analog 224]
[2]; MV522 versus 8392B
  differential toxicity between the target and nontarget cell line: no differential toxicity
[2]; target and nontarget cell line
  toxicity (in words): minimal toxicity

## CC1=C(CCCNS(C)(=O)=O)C2=C(C)C3(CC3)[C@@](C)(O)C(=O)C2=C1 [Analog 241]
[3]
  IC50: > 28 µM

## CC1=C2[C@@H](O)C(C)(C)[C@H]3C[C@@]23C(=O)[C@](C)(O)C12CC2 [Analog 252]
[2]
  IC50: > 380 µM
[3]
  IC50: > 380 µM
[1]
  IC50: > 380 µM

## CC1=C(CCCNS(N)(=O)=O)C2=CC3(CC3)C(C)(O)C(=O)C2=C1 (centres unmarked) [Analog 264]
[3]
  IC50: > 85 µM
[4]
  IC50: 0.076 ± 0.017 µM

## CC1=C(CCCNC(=O)OCC2=C(C(=O)O)N3C(=O)C(NC(=O)Cc4cccs4)C3S(=O)(=O)C2)C2=C(C)C3(CC3)C(C)(O)C(=O)C2=C1 (centres unmarked) [Analog 274]
[3]
  IC50: > 46 µM
[1]
  IC50: > 4.5 µM

## CC[C@H](C)[C@@H]([C@@H](CC(=O)N1CCC[C@H]1[C@H](OC)[C@@H](C)C(=O)NCCc1ccccc1)OC)N(C)C(=O)[C@@H](NC(=O)[C@H](C(C)C)N(C)C)C(C)C [Auristatins]
[8]; NCI DTP 60 cell line mean
  Mean LD50 cytotoxic: >5,000 nM
  Mean TGI cytostatic: 902** nM
[8]; read-out: Mean GI50 inhibition, NCI DTP 60 cell line mean
  GI50: 0.0014 µM

## C=C1C[C@@H]2CC[C@@]34C[C@H]5O[C@H]6[C@@H](O3)[C@H]3O[C@H](CC[C@@H]3O[C@H]6[C@H]5O4)CC(=O)O[C@@H]3[C@@H](C)[C@@H]4O[C@@H]5C[C@]6(C[C@@H]7O[C@]8(C[C@H](C)[C@@H]9O[C@H]([C@@H](O)C[C@@H](O)CO)C[C@@H]9O8)C[C@H](C)[C@@H]7O6)O[C@@H]5C[C@@H]4O[C@H]3C[C@H]3O[C@@H](CC[C@@H]1O2)C[C@@H](C)C3=C [Halichondrin B]
[8]; NCI DTP 60 cell line mean
  Mean TGI cytostatic: 199 nM
[8]
  Mean LD50 cytotoxic: >1,000 nM

## CC1=C2C(=CC(C)(C)[C@@H]2O)C(=O)[C@](C)(O)C12CC2 [Illudin M, reference compound]
[6]
  preferential killing of MCF7 (ER positive) versus ER negative cells: to the same extent
[8]; NCI DTP 60 cell line mean
  Mean LD50 cytotoxic: 912 nM

## CC1=C(CO)C2=C(C)C3(CC3)[C@@](C)(O)C(=O)C2=C1 [Irofulven, 6-hydroxymethylacylfulvene]
[9]
  activity versus common resistance mechanisms: independent of common resistance mechanisms
[10]
  clinical activity: demonstrated clinical activity
  safety profile: acceptable safety profile
